Publication PMC11671526, “β-caryophyllene sensitizes hepatocellular carcinoma cells to chemotherapeutics and inhibits cell malignancy through targeting MAPK signaling pathway” (Frontiers in Pharmacology, 2024)

Test system: HepG2 cells
Assay: RNA-seq transcriptome analysis of differentially expressed genes
Type: cell-based, human
Conditions: BCP vs control HepG2
Description: The quality and concentration of RNA were examined by MOPS RNA electrophoresis and Eppendorf BioSpectrometer. The transcriptome analysis was performed by BGI-Wuhan China. The RNA-seq dataset of this study is accessible in the Gene Expression Omnibus (GEO) with an access number of GSE276099. The sequence library for each sample was prepared using the BGISEQ-500 platform with a 50-bp single-end (SE50) format. […]2.2.1) was used to align the clean reads to the reference genome and alignment of the clean reads to the reference genes was carried out using Bowtie2 (v2.4.5) ([Langmead and Salzberg, 2012]; [Kim et al., 2015]). Gene expression levels were calculated by RSEM (v1.3.1) ([Li and Dewey, 2011]). Analysis of differential gene expression was performed using edgeR in the Bioconductor software package ([Robinson et al., 2010]). Using a standard protocol, the RNA samples were also examined by reverse transcription and quantitative polymerase chain reaction (RT-qPCR). In brief, for reverse transcription, total RNA (1 μg) and gDNA wiper Mix were incubated at 42°C for 2 min. The samples were immediately incubated with a master mix containing 10 pmol/μL of poly (dT) primers at 37°C for 15 min and 85°C for 5 s. To detect the expression of specific genes by qPCR analysis, gene-specific primers (shown in Supplementary Table S1) were mixed with the ChamQ Universal SYBER qPCR Master Mix and the reaction was conducted using the Roche Lightcycler 480. The GAPDH value was used to normalize the results of each gene. The RNA-seq data of BCP-treated HepG2 cells were screened for DEGs. Gene symbols were turned into Enterz ID using the org.Hs.eg.db Bio-conductor R package. The cluster profiler (v4.6.2) package was used to perform the Kyoto Encyclopedia of Genes and Genomes (KEGG) and Gene Ontology (GO) enrichment analyses ([Wu et al., 2021]). Following the Transcript per million (TPM) data of the dataset, the line chart, and heatmap were plotted using ggplot2 and pheatmap R packages, respectively.

C=C1CC/C=C(\C)CC[C@@H]2[C@@H]1CC2(C)C [BCP, β-caryophyllene] was tested, and the “logFC APOBEC3C” value (gene APOBEC3C, RNA-seq) was -0.5856, the “change APOBEC3C” value (gene APOBEC3C, DEG direction) was “Down” and the “logFC ARRB1” value (gene ARRB1, RNA-seq) was -0.7626. The “change ARRB1” value (gene ARRB1, DEG direction) was “Down”, the “logFC ATP9A” value (gene ATP9A, RNA-seq) was 0.6507 and the “change ATP9A” value (gene ATP9A, DEG direction) was “Up”. The “logFC ATP11C” value (gene ATP11C, RNA-seq) was -0.7847, the “change ATP11C” value (gene ATP11C, DEG direction) was “Down” and the “logFC AXIN2” value (gene AXIN2, RNA-seq) was 0.6672. The “change AXIN2” value (gene AXIN2, DEG direction) was “Up”, the “logFC B4GALNT4” value (gene B4GALNT4, RNA-seq) was -0.5947 and the “change B4GALNT4” value (gene B4GALNT4, DEG direction) was “Down”. For the same compound, the “logFC BACE2” value (gene BACE2, RNA-seq) was 0.7147, the “change BACE2” value (gene BACE2, DEG direction) was “Up” and the “logFC BICDL1” value (gene BICDL1, RNA-seq) was -0.8616. For the same compound, the “change BICDL1” value (gene BICDL1, DEG direction) was “Down”, the “logFC BIRC7” value (gene BIRC7, RNA-seq) was 0.7538 and the “change BIRC7” value (gene BIRC7, DEG direction) was “Up”. The “logFC BIVM-ERCC5” value (gene BIVM-ERCC5, RNA-seq) was 0.699, the “change BIVM-ERCC5” value (gene BIVM-ERCC5, DEG direction) was “Up” and the “logFC BLCAP” value (gene BLCAP, RNA-seq) was -0.6138. The “change BLCAP” value (gene BLCAP, DEG direction) was “Down”, the “logFC BMP2” value (gene BMP2, RNA-seq) was 0.7686 and the “change BMP2” value (gene BMP2, DEG direction) was “Up”. For the same compound, the “logFC BUB1B-PAK6” value (gene BUB1B-PAK6, RNA-seq) was -1.6183, the “change BUB1B-PAK6” value (gene BUB1B-PAK6, DEG direction) was “Down” and the “logFC C1orf198” value (gene C1orf198, RNA-seq) was 0.6. For the same compound, the “change C1orf198” value (gene C1orf198, DEG direction) was “Up”, the “logFC C1orf216” value (gene C1orf216, RNA-seq) was -0.8102 and the “change C1orf216” value (gene C1orf216, DEG direction) was “Down”. The “logFC C3orf80” value (gene C3orf80, RNA-seq) was -1.174, the “change C3orf80” value (gene C3orf80, DEG direction) was “Down” and the “logFC C4B” value (gene C4B, RNA-seq) was 2.54. The “change C4B” value (gene C4B, DEG direction) was “Up”, the “logFC C11orf86” value (gene C11orf86, RNA-seq) was -1.473 and the “change C11orf86” value (gene C11orf86, DEG direction) was “Down”. The “logFC C19orf71” value (gene C19orf71, RNA-seq) was 0.8161, the “change C19orf71” value (gene C19orf71, DEG direction) was “Up” and the “logFC CA5B” value (gene CA5B, RNA-seq) was -1.2201. For the same compound, the “change CA5B” value (gene CA5B, DEG direction) was “Down”, the “logFC CARD6” value (gene CARD6, RNA-seq) was -1.5314 and the “change CARD6” value (gene CARD6, DEG direction) was “Down”. For the same compound, the “logFC CCDC24” value (gene CCDC24, RNA-seq) was 1.127, the “change CCDC24” value (gene CCDC24, DEG direction) was “Up” and the “logFC CCDC86” value (gene CCDC86, RNA-seq) was -0.7779. The “change CCDC86” value (gene CCDC86, DEG direction) was “Down”, the “logFC CCL2” value (gene CCL2, RNA-seq) was -1.48 and the “change CCL2” value (gene CCL2, DEG direction) was “Down”. The “logFC CCL5” value (gene CCL5, RNA-seq) was -1.124, the “change CCL5” value (gene CCL5, DEG direction) was “Down” and the “logFC CCL26” value (gene CCL26, RNA-seq) was -1.513. For the same compound, the “change CCL26” value (gene CCL26, DEG direction) was “Down”, the “logFC CELF2” value (gene CELF2, RNA-seq) was 0.8875 and the “change CELF2” value (gene CELF2, DEG direction) was “Up”. For the same compound, the “logFC CHST2” value (gene CHST2, RNA-seq) was -1.145, the “change CHST2” value (gene CHST2, DEG direction) was “Down” and the “logFC CKAP2L” value (gene CKAP2L, RNA-seq) was 0.6857. For the same compound, the “change CKAP2L” value (gene CKAP2L, DEG direction) was “Up”, the “logFC CLDN2” value (gene CLDN2, RNA-seq) was 1.355 and the “change CLDN2” value (gene CLDN2, DEG direction) was “Up”. The “logFC CLIP2” value (gene CLIP2, RNA-seq) was -0.6426, the “change CLIP2” value (gene CLIP2, DEG direction) was “Down” and the “logFC CLK1” value (gene CLK1, RNA-seq) was 0.5953. For the same compound, the “change CLK1” value (gene CLK1, DEG direction) was “Up”, the “logFC CLTCL1” value (gene CLTCL1, RNA-seq) was 0.7125 and the “change CLTCL1” value (gene CLTCL1, DEG direction) was “Up”. For the same compound, the “logFC COL1A1” value (gene COL1A1, RNA-seq) was 0.6324, the “change COL1A1” value (gene COL1A1, DEG direction) was “Up” and the “logFC COL4A1” value (gene COL4A1, RNA-seq) was 0.7663. The “change COL4A1” value (gene COL4A1, DEG direction) was “Up”, the “logFC COL7A1” value (gene COL7A1, RNA-seq) was 0.6003 and the “change COL7A1” value (gene COL7A1, DEG direction) was “Up”. For the same compound, the “logFC CPM” value (gene CPM, RNA-seq) was 0.6061, the “change CPM” value (gene CPM, DEG direction) was “Up” and the “logFC CPS1” value (gene CPS1, RNA-seq) was 0.6121. For the same compound, the “change CPS1” value (gene CPS1, DEG direction) was “Up”, the “logFC CRABP2” value (gene CRABP2, RNA-seq) was -0.6843 and the “change CRABP2” value (gene CRABP2, DEG direction) was “Down”. The “logFC CREB3L4” value (gene CREB3L4, RNA-seq) was 0.5981, the “change CREB3L4” value (gene CREB3L4, DEG direction) was “Up” and the “logFC CREG2” value (gene CREG2, RNA-seq) was 0.6638. For the same compound, the “change CREG2” value (gene CREG2, DEG direction) was “Up”, the “logFC CRELD1” value (gene CRELD1, RNA-seq) was 0.9439 and the “change CRELD1” value (gene CRELD1, DEG direction) was “Up”. The “logFC CSRP2” value (gene CSRP2, RNA-seq) was 0.7909, the “change CSRP2” value (gene CSRP2, DEG direction) was “Up” and the “logFC CYP1A1” value (gene CYP1A1, RNA-seq) was -0.7093. The “change CYP1A1” value (gene CYP1A1, DEG direction) was “Down”, the “logFC CYP3A5” value (gene CYP3A5, RNA-seq) was -1.0618 and the “change CYP3A5” value (gene CYP3A5, DEG direction) was “Down”. The “logFC CYP3A7” value (gene CYP3A7, RNA-seq) was -2.402, the “change CYP3A7” value (gene CYP3A7, DEG direction) was “Down” and the “logFC CYP11A1” value (gene CYP11A1, RNA-seq) was -1.306. The “change CYP11A1” value (gene CYP11A1, DEG direction) was “Down”, the “logFC CYP26B1” value (gene CYP26B1, RNA-seq) was -0.8298 and the “change CYP26B1” value (gene CYP26B1, DEG direction) was “Down”. The “logFC DAAM1” value (gene DAAM1, RNA-seq) was -0.6083, the “change DAAM1” value (gene DAAM1, DEG direction) was “Down” and the “logFC DDIT3” value (gene DDIT3, RNA-seq) was 0.9459. The “change DDIT3” value (gene DDIT3, DEG direction) was “Up”, the “logFC DDR2” value (gene DDR2, RNA-seq) was 0.7117 and the “change DDR2” value (gene DDR2, DEG direction) was “Up”. The “logFC DENND2D” value (gene DENND2D, RNA-seq) was -1.958, the “change DENND2D” value (gene DENND2D, DEG direction) was “Down” and the “logFC DEPDC1” value (gene DEPDC1, RNA-seq) was 0.5867. For the same compound, the “change DEPDC1” value (gene DEPDC1, DEG direction) was “Up”, the “logFC DGKD” value (gene DGKD, RNA-seq) was 0.5855 and the “change DGKD” value (gene DGKD, DEG direction) was “Up”. For the same compound, the “logFC DLG2” value (gene DLG2, RNA-seq) was -1.169, the “change DLG2” value (gene DLG2, DEG direction) was “Down” and the “logFC DNER” value (gene DNER, RNA-seq) was 1.171. The “change DNER” value (gene DNER, DEG direction) was “Up”, the “logFC DOCK4” value (gene DOCK4, RNA-seq) was -0.9058 and the “change DOCK4” value (gene DOCK4, DEG direction) was “Down”. The “logFC EFNB2” value (gene EFNB2, RNA-seq) was -0.688, the “change EFNB2” value (gene EFNB2, DEG direction) was “Down” and the “logFC EGLN3” value (gene EGLN3, RNA-seq) was -0.764.
